Laboratory results as given in patent US4880817A, “O-functionalized derivatives of substituted isoquinolin-3-ols having cardiotonic and/or phosphodiesterase fraction III inhibiting properties and/or renal vasodilating properties” (Ortho Pharmaceutical Corporation, priority 1987, dated 1989).
Like-named read-outs stand apart in the source and are kept apart here.

Key:
[1] = tested on: adult mongrel dogs; test: Acute in vivo cardiotonic activity in anesthetized dogs; design: species or system mongrel dog; conditions: Canis lupus familiaris, iv, relative to controls; for change in vivo at 0.875 mg/kg: dose 0.875 mpk; for change in vivo at 1.87 mg/kg: dose 1.87 mpk
Procedure: The acute in vivo cardiotonic activity of compounds prepared according to the present invention was determined according to a modification of the procedure described by Alousi et al., Circ.
In particular, adult mongrel dogs were anesthetized with sodium pentobarbital and were artificially respired. Arterial pressure was monitored via a femoral artery, and the pulse pressure was used to trigger a cardiotachometer for heart rate. Left ventricular pressure was determined with a Millar catheter, and dP/dT (the change in ventricular pressure with time) was derived. Cardiac output was determined by measuring ascending aortic blood flow with an electromagnetic flow probe, and myocardial contractile force was measured with a Walton Brodie strain gauge sutured to the right ventricle. Lead II EKG was also recorded.
A standard dose (10 μg/kg/min) of dopamine was administered to assess myocardial responsiveness.
Compounds of the invention were administered by intravenous infusion and the effects on cardiovascular parameters were determined.

[2] = tested on: adult mongrel dogs; test: Renal vasodilating activity in anesthetized dogs; assay type: in vivo, mongrel dog; conditions: Canis lupus familiaris
Procedure: Goldberg et al., J. Pharmacol. Exp. Ther., 163, 188 (1968), performed an investigation of the structural requirements for dopamine-like renal vasodilation of phenethylamines and apomorphine. The following procedure is a variation of the assay described in that report.
Adult mongrel dogs were anesthetized and surgically prepared for electromagnetic measurement of renal artery blood flow. A carotid artery was cannulated for measuring arterial blood pressure and drugs were administered intravenously or intraarterially (via the renal artery). Heart rate was monitored with a cardiotachometer. Renal vascular resistance was calculated as the ratio of mean arterial blood pressure to renal artery blood flow. Dopamine was infused intravenously at 3 μg/kg/min for ten minutes (at an infusion rate of about 1 ml/min) to determine responsiveness of each dog to renal dopamine receptor stimulation. Cumulative dose-response data were obtained by infusing a compound of this invention at progressively increasing (usually three-fold) infusion rates, each dose being infused for five minutes. The maximum percent change from pre-drug control in renal artery blood flow (or in renal vascular resistance) was determined for each infusion dose.
RBF, RVR, MABP, and HR values are percent changes in renal blood flow, renal vascular resistance, mean arterial blood pressure, and heart rate, respectively, relative to control values.

[3] = read-out: CF: percent change in cardiac force
[4] = read-out: HR: percent change in heart rate
[5] = read-out: MABP: percent change in mean arterial blood pressure
[6] = read-out: dP/dT: maximum percent change in left ventricular pressure with time
[7] = dose 6.2 mpk, relative to controls, read-out: HR: percent change in heart rate
[8] = dose 6.2 mpk, relative to controls, read-out: RBF: percent change in renal blood flow
[9] = dose 6.2 mpk, relative to controls, read-out: RVR: percent change in renal vascular resistance
[10] = read-out: HR: percent change in heart rate, dose 6.2 mpk, relative to controls
[11] = read-out: MABP: percent change in mean arterial blood pressure, dose 6.2 mpk, relative to controls
[12] = read-out: RBF: percent change in renal blood flow, dose 6.2 mpk, relative to controls
[13] = read-out: RVR: percent change in renal vascular resistance, dose 6.2 mpk, relative to controls
[14] = read-out: HR: percent change in heart rate, dose 1.2 mpk, relative to controls
[15] = read-out: MABP: percent change in mean arterial blood pressure, dose 1.2 mpk, relative to controls
[16] = read-out: RBF: percent change in renal blood flow, dose 1.2 mpk, relative to controls
[17] = read-out: RVR: percent change in renal vascular resistance, dose 1.2 mpk, relative to controls

COc1cc2c(C)nc(OC(=O)c3ccccc3)c([N+](=O)[O-])c2cc1OC [Cmpd 7]
change in vivo at 0.875 mg/kg [1, 3]: 59% | change in vivo at 0.875 mg/kg [1, 4]: 4% | change in vivo at 0.875 mg/kg [1, 5]: -10% | change in vivo at 0.875 mg/kg [1, 6]: 34%

COc1cc2c(C)nc(OC(=O)C(C)(C)C)c([N+](=O)[O-])c2cc1OC [Cmpd 12]
change in vivo at 6.2 mg/kg [2, 7]: 12% | change in vivo at 6.2 mg/kg [2, 8]: 38% | change in vivo at 6.2 mg/kg [2, 9]: -26% | change in vivo at 1.87 mg/kg [1, 3]: 70% | change in vivo at 1.87 mg/kg [1, 4]: 14% | change in vivo at 1.87 mg/kg [1, 5]: -10% | change in vivo at 1.87 mg/kg [1, 6]: 51%

COc1cc2c(C)nc(OC(=O)N(C)C)c([N+](=O)[O-])c2cc1OC [Cmpd 13]
change in vivo at 6.2 mg/kg [2, 10]: 12% | change in vivo at 6.2 mg/kg [2, 11]: -5% | change in vivo at 6.2 mg/kg [2, 12]: 8% | change in vivo at 6.2 mg/kg [2, 13]: -12% | change in vivo at 1.87 mg/kg [1, 3]: 49% | change in vivo at 1.87 mg/kg [1, 4]: 6% | change in vivo at 1.87 mg/kg [1, 5]: -8% | change in vivo at 1.87 mg/kg [1, 6]: 24%

COc1cc2c(C)nc(OS(=O)(=O)N(C)C)c([N+](=O)[O-])c2cc1OC [Cmpd 25]
change in vivo at 6.2 mg/kg [2, 7]: 32% | change in vivo at 6.2 mg/kg ([2]; dose 6.2 mpk, relative to controls, read-out: MABP: percent change in mean arterial blood pressure): -12% | change in vivo at 6.2 mg/kg [2, 8]: 61% | change in vivo at 6.2 mg/kg [2, 9]: -46% | change in vivo at 1.87 mg/kg [1, 3]: 49% | change in vivo at 1.87 mg/kg [1, 4]: 5% | change in vivo at 1.87 mg/kg [1, 5]: 12% | change in vivo at 1.87 mg/kg [1, 6]: 61%

CCOc1cc2c(C)nc(OC(=O)N(CC)CC)c([N+](=O)[O-])c2cc1OC [Cmpd 28]
change in vivo at 6.2 mg/kg [2, 10]: 5% | change in vivo at 6.2 mg/kg [2, 11]: -18% | change in vivo at 6.2 mg/kg [2, 12]: 50% | change in vivo at 6.2 mg/kg [2, 13]: -45% | change in vivo at 0.875 mg/kg [1, 3]: 71% | change in vivo at 0.875 mg/kg [1, 4]: 27% | change in vivo at 0.875 mg/kg [1, 5]: -4% | change in vivo at 0.875 mg/kg [1, 6]: 70%

CCCC(=O)Oc1nc(C)c2cc(OC)c(OC)cc2c1[N+](=O)[O-] [Cmpd 41]
change in vivo at 1.87 mg/kg [1, 3]: 166% | change in vivo at 1.87 mg/kg [1, 4]: 29% | change in vivo at 1.87 mg/kg [1, 5]: -34% | change in vivo at 1.87 mg/kg [1, 6]: 62%

CCCCNC(=O)Nc1c(OC(=O)N2CCN(C(=O)OC(C)(C)C)CC2)nc(C)c2cc(OC)c(OC)cc12 [Cmpd 76]
change in vivo at 1.2 mg/kg [2, 14]: -9% | change in vivo at 1.2 mg/kg [2, 15]: -2% | change in vivo at 1.2 mg/kg [2, 16]: 23% | change in vivo at 1.2 mg/kg [2, 17]: -22%

CCCCNC(=O)Nc1c(OC(=O)N2CCNCC2)nc(C)c2cc(OC)c(OC)cc12 [Cmpd 80]
change in vivo at 1.2 mg/kg [2, 14]: 2% | change in vivo at 1.2 mg/kg [2, 15]: 0% | change in vivo at 1.2 mg/kg [2, 16]: 25% | change in vivo at 1.2 mg/kg [2, 17]: -16%
